Source: patent US11779586B2, “Compounds comprising tricyclic heterocyclic compounds” (Convalife (Shanghai) Co. Limited, priority 2015, dated 2023)
Like-named read-outs stand apart in the source and are kept apart here.

Assays:
p110δ/p110γ = assay: HTRF biochemical assay, class I PI3K isoforms (Reaction Biology Corp.): fold selectivity p110δ/p110γ; conditions: fold form selectivity
p110β/p110γ = assay: HTRF biochemical assay, class I PI3K isoforms (Reaction Biology Corp.): fold selectivity p110β/p110γ; conditions: fold form selectivity
Description: (§1) Fold form selectivity inhibition data against class I PI3K isoforms, as determined using a HTRF biochemical assay conducted at Reaction Biology Corp., is listed below.

p110δ/p110α = assay: HTRF biochemical assay, class I PI3K isoforms (Reaction Biology Corp.): fold selectivity p110δ/p110α; conditions: fold form selectivity
p110β/p110α = assay: HTRF biochemical assay, class I PI3K isoforms (Reaction Biology Corp.): fold selectivity p110β/p110α; conditions: fold form selectivity
Description: as §1

[1] = Rodent pharmacokinetics: oral bioavailability and clearance, plasma PK; assay type: in vivo, mouse
Experimental: Formulation: 10% DMSO, 90% Saline Dosing: 10 mg/kg P.O. and 5 mg/kg I.V.
• Species=male mouse; • Strain=Balb/c; • 18 male mice were divided into two groups Group 1 (3 mg/kg; I.V.), Group 2 (10 mg/kg; P.O.) with each group comprising nine mice; • Blood samples (approximately 60 μL) were collected from retro orbital plexus under light isoflurane anesthesia such that the samples were obtained at pre-dose, 0.08, 0.25, 0.5, 1, 2, 4, 8 and 24 hr (I.V.) and pre-dose, 0.25, 0.5, 1, 2, 4, 6, 8 and 24 hr (P.O.); • The blood samples were collected from a set of three mice at each time point in labeled micro centrifuge tube containing K2EDTA as anticoagulant; • Plasma samples were separated by centrifugation of whole blood and stored below −70° C. until bioanalysis; • All samples were processed for analysis by protein precipitation using acetonitrile (ACN) and analyzed with fit for purpose LC/MS/MS method (LLOQ: 2.02 ng/mL); • Pharmacokinetic parameters were calculated using the non-compartmental analysis tool of Phoenix WinNonlin (Version 6.3). Formulation: Animals in Group 1 were administered intravenously with Example B solution formulation in 20% propylene glycol, 50% of PEG 400 and 30% of 20% βCD in water via tail vein at a dose of 3 mg/kg. Animals in Group 2 were administered with oral solution formulation of Example B in 20% propylene glycol, 50% of PEG 400 and 30% of 20% HPβCD in water at a dose of 10 mg/kg; Dosing: 10 mg/kg P.O. and 3 mg/kg I.V.
• Species=male mouse; • Strain=Balb/c; • 18 male mice were divided into two groups Group 1 (3 mg/kg; I.V.), Group 2 (10 mg/kg; P.O.) with each group comprising nine mice; • Blood samples (approximately 60 μL) were collected from retro orbital plexus under light isoflurane anesthesia such that the samples were obtained at pre-dose, 0.08, 0.25, 0.5, 1, 2, 4, 8 and 24 hr (I.V.) and pre-dose, 0.25, 0.5, 1, 2, 4, 6, 8 and 24 hr (P.O.); • The blood samples were collected from a set of three mice at each time point in labeled micro centrifuge tube containing K2EDTA as anticoagulant; • Plasma samples were separated by centrifugation of whole blood and stored below −70° C. until bioanalysis; • All samples were processed for analysis by protein precipitation using acetonitrile (ACN) and analyzed with fit for purpose LC/MS/MS method (LLOQ: 2.47 ng/mL); • Pharmacokinetic parameters were calculated using the non-compartmental analysis tool of Phoenix WinNonlin (Version 6.3). Formulation: Animals in Group 1 were administered intravenously with Example G solution formulation in 5% NMP, 5% solutol HS-15 in 90% HPβCD solution (20% HPβCD in RO water) at 3 mg/kg dose. Animals in Group 2 were administered orally with 10 mg/kg solution formulation of Example G in 5% NMP, 5% solutol HS-15 in 90% HPβCD solution (20% HPβCD in RO water) Dosing: 10 mg/kg P.O. and 3 mg/kg I.V.
• Species=male mouse; • Strain=CD1; • n=3 male mice per time point per route; • Terminal blood sampling at 8 time points (5 min, 10 min, 0.5 hr, 1 hr, 3 hr, 6 hr, 8 hr and, 24 hr); • Collection of plasma, bio-analysis and report of pharmacokinetic parameters. Formulation: 10% DMSO, 90% Saline Dosing: 10 mg/kg P.O. and 5 mg/kg I.V.

[2] = in vivo, iv, male mouse, I.V. (5 mg/kg CD1: Example A, comparative; 3 mg/kg Balb/c: Examples B, G), mesylate salt, read-out: Clearance

Structure (SMILES) | Fold IC50 p110δ/p110γ (p110δ/p110γ) | Fold IC50 p110β/p110γ (p110β/p110γ) | Fold IC50 p110δ/p110α (p110δ/p110α) | Fold IC50 p110β/p110α (p110β/p110α) | F ([1]; male, CD1, mouse, in vivo) [%] | clearance ([1]; male, mouse, in vivo, iv) [mL/min/kg] | clearance [1, 2] [mL/min/kg] | F ([1]; male Balb/c mouse, PO 10 mg/kg vs IV 3 mg/kg, 20% propylene glycol, 50% PEG 400, 30% of 20% HPβCD in water, mesylate salt) [%] | clearance ([1]; male, mouse, in vivo, summary table, mice, mesylate salts, read-out: Clearance) [mL/min/kg] | F ([1]; male Balb/c mouse, PO 10 mg/kg vs IV 3 mg/kg, 5% NMP, 5% solutol HS-15 in 90% HPβCD solution, mesylate salt) [%]
c1cc(-c2nc(N3CCOCC3)c3oc4ncc(CN5CC6CC[C@H](C5)O6)cc4c3n2)c2cc[nH]c2c1 (stereo in doubt) [Example C, 4-(1H-Indol-4-yl)-6-(morpholin-4-yl)-12-{8-oxa-3-azabicyclo[3.2.1]octan-3-ylmethyl}-8-oxa-3,5,10-triazatricyclo[7.4.0.0^2,7]trideca-1(13),2(7),3,5,9,11-hexaene] | ** (** = >50×) | ** (** = >50×) | ** (** = >50×) | * (* = ≥10× ≥ 50×) | – | – | – | – | – | –
c1cc(-c2nc(N3CCOCC3)c3oc4ncc(CN5C[C@@H]6C[C@H]5CO6)cc4c3n2)c2cc[nH]c2c1 [Example A, 4-(1H-Indol-4-yl)-6-(morpholin-4-yl)-12-[(1S,4S)-2-oxa-5-azabicyclo[2.2.1]heptan-5-ylmethyl]-8-oxa-3,5,10-triazatricyclo[7.4.0.0^2,7]trideca-1(13),2(7),3,5,9,11-hexaene] | – | – | – | – | 73.77 | 21 | – | – | – | –
c1cc(-c2nc(N3CCOCC3)c3oc4ncc(CN5CCC6(CC5)COC6)cc4c3n2)c2cc[nH]c2c1 [Example B, 4-(1H-Indol-4-yl)-6-(morpholin-4-yl)-12-{2-oxa-7-azaspiro[3.5]nonan-7-ylmethyl}-8-oxa-3,5,10-triazatricyclo[7.4.0.0^2,7]trideca-1(13),2(7),3,5,9,11-hexaene] | ** (** = >50×) | ** (** = >50×) | ** (** = >50×) | ** (** = >50×) | – | – | 33 | 74 | 33 | –
CN1CCC2(CCN(Cc3cnc4oc5c(N6CCOCC6)nc(-c6cccc7[nH]ccc67)nc5c4c3)CC2)C1 [Example D, 4-(1H-Indol-4-yl)-12-({2-methyl-2,8-diazaspiro[4.5]decan-8-yl}methyl)-6-(morpholin-4-yl)-8-oxa-3,5,10-triazatricyclo[7.4.0.0^2,7]trideca-1(13),2(7),3,5,9,11-hexaene] | ** (** = >50×) | ** (** = >50×) | ** (** = >50×) | ** (** = >50×) | – | – | – | – | – | –
CN1CCC2(CCN(Cc3cnc4oc5c(N6CCOCC6)nc(-c6cccc7[nH]ccc67)nc5c4c3)C2)C1 (stereo not drawn) [Example E, 4-(1H-Indol-4-yl)-12-({7-methyl-2,7-diazaspiro[4.4]nonan-2-yl}methyl)-6-(morpholin-4-yl)-8-oxa-3,5,10-triazatricyclo[7.4.0.0^2,7]trideca-1(13),2(7),3,5,9,11-hexaene] | ** (** = >50×) | ** (** = >50×) | ** (** = >50×) | ** (** = >50×) | – | – | – | – | – | –
c1cc(-c2nc(N3CCOCC3)c3oc4ncc(CN5CCC56COC6)cc4c3n2)c2cc[nH]c2c1 [Example G, 4-(1H-indol-4-yl)-6-(morpholin-4-yl)-12-{6-oxa-1-azaspiro[3.3]heptan-1-ylmethyl}-8-oxa-3,5,10-triazatricyclo[7.4.0.0^2,7]trideca-1(13),2(7),3,5,9,11-hexaene] | ** (** = >50×) | ** (** = >50×) | ** (** = >50×) | * (* = ≥10× ≥ 50×) | – | – | 26 | – | – | 30
